Values quoted from earlier work as cited in patent publication US11798661B2, “Methods for lowering blood pressure with a dihydropyridine-type calcium channel blocker pharmaceutical composition” (A[…] Limited, priority 2018, dated 2023).

Conditions: co-administration of 240 mL grapefruit juice with a single oral dose of amlodipine 10 mg

effect on the pharmacokinetics of amlodipine: no significant effect
Compound: CCOC(=O)C1=C(COCCN)NC(C)=C(C(=O)OC)C1c1ccccc1Cl (racemic) [amlodipine, (RS)-3-ethyl 5-methyl 2-[(2-aminoethoxy)methyl]-4-(2-chlorophenyl)-6-methyl-1,4-dihydropyridine-3,5-dicarboxylate]
